Results on 22 compounds are retold here after patent US12065430B2, “Indazole compound or salt thereof” (TAIHO PHARMACEUTICAL CO., LTD., priority 2018, dated 2024).

This experiment concerns the target G12C K-Ras4B (1-169) (Homo sapiens (Human), UniProt P01116, G12C). Kind of experiment: Test of compounds on whether to bind to KRASG12C (LC-MS compound binding rate). Particulars: final compound concentration of 2 μM, 1 μM protein, 25° C. for 2 hours. The procedure, abridged:
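K-Ras4B (1-169) WT and G12C (1 μM each, mixed) in 1×TBS, 0.1 mM TCEP incubated with compound (final 2 μM) 2 h at 25° C; quenched with 0.2% formic acid. Intact-protein LC-MS (ESI+, deconvoluted); binding rate = adduct signal/(adduct + unbound signal), giving selectivity over WT.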
As to `C=CC(=O)N1C[C@@H](NC(=O)c2c(C)nc(CNc3n[nH]c4cc(Cl)c(C(C)(C)C)cc34)n2C)[C@@H]1C` (relative stereo) [Example 59, N-(trans-1-acryloyl-2-methylazetidin-3-yl)-2-(((5-(tert-butyl)-6-chloro-1H-indazol-3-yl)amino)methyl)-1,4-dimethyl-1H-imidazole-5-carboxamide], the “binding rate for G12C K-Ras4B (1-169)” value was “B (a binding rate of 60% or more and less than 80% is rated “B,”)”. Consider `C=CC(=O)N1CC(NC(=O)c2c(Cl)nc(CNc3n[nH]c4cc(Cl)c(C5(C(F)(F)F)CC5)cc34)n2C(C)C)C1` [Example 44, N-(1-acryloylazetidin-3-yl)-4-chloro-2-(((6-chloro-5-(1-(trifluoromethyl)cyclopropyl)-1H-indazol-3-yl)amino)methyl)-1-isopropyl-1H-imidazole-5-carboxamide], for which the “binding rate for G12C K-Ras4B (1-169)” value is “B (a binding rate of 60% or more and less than 80% is rated “B,”)”. For `C=CC(=O)N1CC(NC(=O)c2c(C)nc(CNc3n[nH]c4cc(Cl)c(C(C)(C)C)cc34)n2CCCC)C1` [Example 18, N-(1-acryloylazetidin-3-yl)-1-butyl 2-(((5-(tert-butyl)-6-chloro-1H-indazol-3-yl)amino)methyl)-4-methyl-1H-imidazole-5-carboxamide], the “binding rate for G12C K-Ras4B (1-169)” value was “B (a binding rate of 60% or more and less than 80% is rated “B,”)”. To `C=CC(=O)N1C[C@@H](CC)[C@@H](NC(=O)c2c(C)nc(CNc3n[nH]c4cc(Cl)c(C(C)(C)C)cc34)n2C)C1` [Example 69, N-((3R,4R)-1-acryloyl-4-ethylpyrrolidin-3-yl)-2-(((5-(tert-butyl)-6-chloro-1H-indazol-3-yl)amino)methyl)-1,4-dimethyl-1H-imidazole-5-carboxamide] belongs “E (a binding rate of less than 20% is rated “E.”)”; to `C=CC(=O)N1CC(NC(=O)c2c(C)c(CNc3n[nH]c4cc(Cl)c(C(C)(C)C)cc34)nn2C)C1` [Example 10, N-(1-acryloylazetidin-3-yl)-3-(((5-(tert-butyl)-6-chloro-1H-indazol-3-yl)amino)methyl)-1,4-dimethyl-1H-pyrazole-5-carboxamide], “B (a binding rate of 60% or more and less than 80% is rated “B,”)”; to `C=CC(=O)N1CC(NC(=O)c2c(Cl)nc(CNc3n[nH]c4cc(Cl)c(C(C)(C)C)cc34)n2CCOC)C1` [Example 90, N-(1-acryloylazetidin-3-yl)-2-(((5-(tert-butyl)-6-chloro-1H-indazol-3-yl)amino)methyl)-4-chloro-1-(2-methoxyethyl)-1H-imidazole-5-carboxamide], “A (a binding rate of 80% or more is rated “A,”)”.

On to `C=CC(=O)N1CC(NC(=O)c2c(Cl)nc(CNc3n[nH]c4cc(Cl)c(C(C)(C)C)cc34)n2C2CCCCC2)C1` [Example 109, N-(1-acryloylazetidin-3-yl)-2-(((5-(tert-butyl)-6-chloro-1H-indazol-3-yl)amino)methyl)-4-chloro-1-cyclohexyl-1H-imidazole-5-carboxamide], for which the “binding rate for G12C K-Ras4B (1-169)” value is “B (a binding rate of 60% or more and less than 80% is rated “B,”)”. Consider `C=CC(=O)N1CC(NC(=O)c2c(C)nc(CNc3n[nH]c4cc(Cl)c(C(C)(C)C)cc34)n2C)C(F)(F)C1` (stereo not shown) [Example 53, N-(1-acryloyl-4,4-difluoropyrrolidin-3-yl)-2-(((5-(tert-butyl)-6-chloro-1H-indazol-3-yl)amino)methyl)-1,4-dimethyl-1H-imidazole-5-carboxamide], for which the “binding rate for G12C K-Ras4B (1-169)” value is “B (a binding rate of 60% or more and less than 80% is rated “B,”)”. The entry for `C=CC(=O)N1CCC(NC(=O)c2c(C)nc(CNc3n[nH]c4cc(Cl)c(C(C)(C)C)cc34)n2C)CC1` [Example 47, N-(1-acryloylpiperidin-4-yl)-2-(((5-(tert-butyl)-6-chloro-1H-indazol-3-yl)amino)methyl)-1,4-dimethyl-1H-imidazole-5-carboxamide] is “C (a binding rate of 40% or more and less than 60% is rated “C,”)”; for `C=CC(=O)N1CC(NC(=O)c2c(Cl)nc(CNc3n[nH]c4cc(Cl)c(C(C)(C)C)cc34)n2[C@H]2CCN(CC(F)F)C2)C1` [Example 115, (S)—N-(1-acryloylazetidin-3-yl)-2-(((5-(tert-butyl)-6-chloro-1H-indazol-3-yl)amino)methyl)-4-chloro-1-(1-(2,2-difluoroethyl)pyrrolidin-3-yl)-1H-imidazole-5-carboxamide] it is “A (a binding rate of 80% or more is rated “A,”)”. `C=CC(=O)N1CC(NC(=O)c2c(C)nc(CNc3n[nH]c4cc(Cl)c(C(C)(C)C)cc34)n2C(C)(C)C)C1` [Example 24, N-(1-acryloylazetidin-3-yl)-1-(tert-butyl)-2-(((5-(tert-butyl)-6-chloro-1H-indazol-3-yl)amino)methyl)-4-methyl-1H-imidazole-5-carboxamide]: the “binding rate for G12C K-Ras4B (1-169)” value is “C (a binding rate of 40% or more and less than 60% is rated “C,”)”.

For `C=CC(=O)N1C[C@@H](CF)[C@@H](NC(=O)c2c(C)nc(CNc3n[nH]c4cc(Cl)c(C(C)(C)C)cc34)n2C)C1` [Example 66, N-((3R,4R)-1-acryloyl-4-(fluoromethyl)pyrrolidin-3-yl)-2-(((5-(tert-butyl)-6-chloro-1H-indazol-3-yl)amino)methyl)-1,4-dimethyl-1H-imidazole-5-carboxamide], the “binding rate for G12C K-Ras4B (1-169)” value is listed as “A (a binding rate of 80% or more is rated “A,”)”. Turning to `C=CC(=O)N1CC(NC(=O)c2c(C(F)(F)F)nc(CNc3n[nH]c4cc(Cl)c(C(C)(C)C)cc34)n2C)C1` [Example 25, N-(1-acryloylazetidin-3-yl)-2-(((5-(tert-butyl)-6-chloro-1H-indazol-3-yl)amino)methyl)-1-methyl-4-(trifluoromethyl)-1H-imidazole-5-carboxamide], the “binding rate for G12C K-Ras4B (1-169)” value was “A (a binding rate of 80% or more is rated “A,”)”. As for `C=CC(=O)N1CC(NC(=O)c2c(C)nc(CNc3n[nH]c4cc(Cl)c(C(C)(C)C)cc34)n2CCC)C1` [Example 19, N-(1-acryloylazetidin-3-yl)-2-(((5-(tert-butyl)-6-chloro-1H-indazol-3-yl)amino)methyl)-4-methyl-1-propyl-1H-imidazole-5-carboxamide], the “binding rate for G12C K-Ras4B (1-169)” value is recorded as “A (a binding rate of 80% or more is rated “A,”)”. With `C=CC(=O)N1C[C@H](NC(=O)c2c(C(F)F)nc(CNc3n[nH]c4cc(Cl)c(C(C)(C)C)cc34)n2C)[C@@H](F)C1` [Example 70, N-((3S,4S)-1-acryloyl-4-fluoropyrrolidin-3-yl)-2-(((5-(tert-butyl)-6-chloro-1H-indazol-3-yl)amino)methyl)-4-(difluoromethyl)-1-methyl-1H-imidazole-5-carboxamide], the “binding rate for G12C K-Ras4B (1-169)” value is on record as “A (a binding rate of 80% or more is rated “A,”)”. The entry for `C=CC(=O)N1CC(NC(=O)c2c(I)nc(CNc3n[nH]c4cc(Cl)c(C(C)(C)C)cc34)n2C)C1` [Example 26, N-(1-acryloylazetidin-3-yl)-2-(((5-(tert-butyl)-6-chloro-1H-indazol-3-yl)amino)methyl)-4-iodo-1-methyl-1H-imidazole-5-carboxamide] is “A (a binding rate of 80% or more is rated “A,”)”; for `C=CC(=O)N1CC(NC(=O)c2c(C(F)(F)F)nc(CNc3n[nH]c4cc(Cl)c(C(C)(C)C)cc34)n2C(C)C)C1` [Example 32, N-(1-acryloylazetidin-3-yl)-2-(((5-(tert-butyl)-6-chloro-1H-indazol-3-yl)amino)methyl)-1-isopropyl-4-(trifluoromethyl)-1H-imidazole-5-carboxamide] it is “B (a binding rate of 60% or more and less than 80% is rated “B,”)”; for `C=CC(=O)N1CC(NC(=O)c2cnc(CNc3n[nH]c4cc(Cl)c(C(C)(C)C)cc34)n2C)C1` [Example 1, N-(1-acryloylazetidin-3-yl)-2-(((5-(tert-butyl)-6-chloro-1H-indazol-3-yl)amino)methyl)-1-methyl-1H-imidazole-5-carboxamide] it is “A (a binding rate of 80% or more is rated “A,”)”. Turning to `C=CC(=O)N1CC(NC(=O)c2cnc(CNc3n[nH]c4cc(Cl)c(C=C)cc34)n2C)C1` [Example 38, N-(1-acryloylazetidin-3-yl)-2-(((6-chloro-5-vinyl 1H-indazol-3-yl)amino)methyl)-1-methyl-1H-imidazole-5-carboxamide], the “binding rate for G12C K-Ras4B (1-169)” value is “C (a binding rate of 40% or more and less than 60% is rated “C,”)”. To `C=CC(=O)N1CC(NC(=O)c2c(Cl)nc(CNc3n[nH]c4cc(Cl)c(C(C)C)cc34)n2C(C)C)C1` [Example 45, N-(1-acryloylazetidin-3-yl)-4-chloro-2-(((6-chloro-5-isopropyl-1H-indazol-3-yl)amino)methyl)-1-isopropyl-1H-imidazole-5-carboxamide] belongs “A (a binding rate of 80% or more is rated “A,”)”. To `C=CC(=O)N1CC(NC(=O)c2c(Cl)nc(CNc3n[nH]c4cc(Cl)c(C(=C)C(F)(F)F)cc34)n2C(C)C)C1` [Example 43, N-(1-acryloylazetidin-3-yl)-4-chloro-2-(((6-chloro-5-(3,3,3-trifluoroprop-1-en-2-yl)-1H-indazol-3-yl)amino)methyl)-1-isopropyl-1H-imidazole-5-carboxamide] belongs “C (a binding rate of 40% or more and less than 60% is rated “C,”)”; to `C=CC(=O)N1CC(NC(=O)c2cnc(CNc3n[nH]c4cc(Cl)c(C(C)(C)C)nc34)n2C)C1` [Example 40, N-(1-acryloylazetidin-3-yl)-2-(((5-(tert-butyl)-6-chloro-1H-pyrazolo[4,3-b]pyridin-3-yl)amino)methyl)-1-methyl-1H-imidazole-5-carboxamide], “A (a binding rate of 80% or more is rated “A,”)”.
